Assay in all cases: DTP human tumour cell line panel, 48 h
The subject of assay [1] is CCRF-CEM leukemia.
For assay [2], the system named is HL-60(TB) leukemia.
Assay [3] relates to DU-145 prostate.
For assay [4], the system named is HOP-62 NSCLC.
For assay [5], the system named is SNB-75 CNS.
The test system of assay [6] is A549 NSCLC.
Assay [7] deals with HCC-2998 colon.
For assay [8], the system named is UACC-257 melanoma.
Assay [9] deals with ACHN renal.
Assay [10] relates to PC-3 prostate.

Several values for one entry are separate records, joined by “and”; a condition that tells them apart may be missing. Equal values may be shown once.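 Where inhibition never reached the appropriate level, the endpoint shown equals the highest concentration tested. Otherwise, values were interpolated linearly from a five-concentration, 48-hour dose response in 96-well plates. Abbreviation: GI50, concentration required for 50% inhibition of growth. TGI: concentration producing complete growth inhibition.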

Usually TGI stands for the concentration at which net growth stops. `COc1ccccc1Nc1nc(NNC(=O)Cc2ccccc2)nc(NNC(=O)c2ccncc2)n1`: the TGI in assay [1], in assay [2], in assay [3], in [4], in assay [5] and in assay [6] was greater than 10 µM in each case. For the same compound, the TGI in [7] and in assay [8] was greater than 10 µM throughout.
Regarding `CC(=O)c1cc2ccccc2n(O)c1=N`, the TGI in assay [1], in assay [2], in [3], in assay [9], in assay [4] and in [10] was greater than 100 µM throughout. Further, the concentration for total growth inhibition (TGI) in assay [6], in assay [7] and in assay [8] was greater than 100 µM throughout.
With `COc1cc2c(cc1OC)-c1c3c(cc4c1[C@@H](C2)N(C)CC4)OCO3`, the total growth inhibition concentration (TGI) in [1] was determined as 39.4 µM; in assay [2], 29.9 µM; in assay [4] it was 20.7 µM; in assay [5], 23.9 µM; in assay [6], 32.2 µM; in [7] it was 23.8 µM. This compound also gave a concentration for total growth inhibition (TGI) in assay [8] of 26 µM.
In the case of `CN(C)CCNc1ncnc2nc(-c3ccc4ccccc4c3)[nH]c12`, the TGI in assay [1], in assay [2], in assay [3], in assay [9], in assay [4] and in assay [10] was greater than 100 µM throughout. Further, the total growth inhibition concentration (TGI) in assay [6], in [7] and in assay [8] was greater than 100 µM throughout.
For the compound `CN(Cc1cnc2nc(N)nc(N)c2n1)c1ccc(C(=O)NC(CCC(=O)NC(P(=O)(O)O)P(=O)(O)O)C(=O)O)cc1` (stereo not drawn), the TGI in assay [1], in [2], in assay [3], in [9], in assay [4] and in [5] was greater than 100 µM throughout. The TGI in assay [10], in assay [6] and in assay [8] was greater than 100 µM throughout.
In the case of `COc1ccc(/C=C2\N=C(c3ccccc3)N(C3Nc4cc5c(cc4S3)NC(N3C(=O)/C(=C/c4ccc(OC)cc4)N=C3c3ccccc3)S5)C2=O)cc1` (stereo not drawn), the total growth inhibition concentration (TGI) in assay [2] is greater than 100 µM; in assay [3], greater than 100 µM; in assay [9] it was greater than 100 µM; in [4], greater than 100 µM; in assay [5], 94.2 µM; in [10] it was greater than 100 µM. Also, the TGI was greater than 100 µM in assay [6], 97.7 µM in assay [7] and greater than 100 µM in assay [8].
On to `Nc1cc(N2CCCC2)nc(=O)n1Cc1ccccc1`, for which the concentration for total growth inhibition (TGI) in assay [1], in assay [2], in [3], in assay [9], in [4] and in assay [5] was greater than 100 µM in each case. Further, the TGI in assay [10], in assay [6] and in assay [8] was greater than 100 µM throughout.
For `CC1(Cl)CC2C(CC1Sc1nnnn1-c1ccccc1)C2(C)C` (stereo not drawn), the TGI was greater than 100 µM in assay [1]; 49.4 µM in [2]; greater than 100 µM in assay [9]; greater than 100 µM in assay [4]; greater than 100 µM in assay [6]; greater than 100 µM in assay [7]. Moreover, the total growth inhibition concentration (TGI) in [8] was greater than 100 µM.
On to `NCCCCNCCCNC(=O)c1nc(-c2csc(CCN)n2)sc1Cl`, for which the TGI in [1], in [2], in [9], in [4], in assay [5] and in assay [6] was greater than 100 µM in each case. The TGI in assay [7] and in [8] was greater than 100 µM throughout.
Take `O=C1C(Br)=C(c2ccccc2)S(=O)c2ccccc21` (stereo not drawn): the concentration for total growth inhibition (TGI) in assay [2] came to 6.63 µM; in assay [3], 27.9 µM; in [9] it was 6.53 µM; in assay [4], 5.68 µM; in assay [5] it was 31.1 µM; in assay [10], 21.2 µM. Besides, the results for the TGI in [6], in [7] and in [8] were 62 µM, 27.9 µM and 25.8 µM, respectively.
`Oc1ccc(CCc2cc(O)cc(O)c2)cc1`: the total growth inhibition concentration (TGI) in [2], in [3], in [9], in assay [4], in assay [5] and in [10] was greater than 100 µM throughout. In addition, the TGI in [6] and in assay [8] was greater than 100 µM throughout.
Consider `O=C(NCCCNCCNC(=O)c1cc(-c2ccccc2)nc2ccccc12)c1cc(-c2ccccc2)nc2ccccc12`, for which the total growth inhibition concentration (TGI) stood at 3.42 µM in assay [1]; 4.3 µM in [2]; 3.3 µM in assay [9]; 3.06 µM in [4]; 2.83 µM in assay [5]; 3.09 µM in assay [10]. Further, the concentration for total growth inhibition (TGI) in [6] was found to be 3.13 µM; in [7], 3.11 µM; in assay [8] it was 3.08 µM.
Consider `Cc1c(-c2ccccc2)c(C#N)c2nnc(C(N)=O)c(N)n12`, for which the concentration for total growth inhibition (TGI) in assay [1], in [2], in assay [3], in assay [9], in assay [4] and in assay [10] was greater than 100 µM each time. For the same compound, the TGI in assay [6], in assay [7] and in [8] was greater than 100 µM throughout.
As usually defined, the GI50 is the concentration at which growth is held to half of that of the control. With `COc1ccc2c(c1)/c(=C/c1ccc(N(C)C)cc1)c1cc(-c3ccccc3)[n+](C)n12`, the 50% growth inhibitory concentration (GI50) is 0.0859 µM in [1] and 0.108 µM in assay [3]. In addition, the concentration for total growth inhibition (TGI) is 2.51 µM and 1.84 µM in assay [3]; 5.68 µM in [9]; 2.71 µM in assay [4]; 0.327 µM in [5]; 1.09 µM in assay [10]; 5.07 µM in assay [6]. The same compound returned a TGI in assay [8] of 2.19 µM.
As for `O=S1(=O)c2ccccc2NC(=S)CC1c1ccccc1` (stereo not drawn), the TGI in assay [1], in assay [2], in [3], in assay [9], in assay [4] and in assay [5] was greater than 100 µM in each case. Further, the TGI in [10], in [6] and in assay [8] was greater than 100 µM in each case.
On to `COc1cc(C2SCC(=O)N2c2ccc(Oc3ccc(Cl)cc3)c(Cl)c2)cc(OC)c1OC` (stereo not drawn), for which the TGI in assay [3] is 27.3 µM; in [9] it was greater than 100 µM; in [4], 35.2 µM; in [5], 31.3 µM; in assay [10] it was 28.9 µM; in assay [6], 69.2 µM. Also, the figures for the TGI in assay [7] and in [8] were greater than 100 µM and 33.3 µM, respectively.
As to `CC(=O)Oc1ccc(C2COc3cc(OC(C)=O)c(OC(C)=O)cc3C2)cc1` (stereo not drawn), the TGI in assay [1] was 58.1 µM; in assay [2], 20.3 µM; in assay [4], 48 µM; in [5], 32.6 µM; in [6] it was 57.3 µM; in assay [7], 46.8 µM. The compound also registered a TGI in assay [8] of 34.9 µM.
`COc1cc(C2S/C(=C/c3ccccc3)C(=O)N2c2ccc(Cl)c(Cl)c2)cc(OC)c1OC` (stereo not drawn): the TGI in assay [1], in assay [2], in assay [3], in assay [9], in [4] and in [10] was greater than 100 µM in each case. Moreover, the total growth inhibition concentration (TGI) in assay [6], in assay [7] and in [8] was greater than 100 µM in each case.
For the compound `COc1c2cc(C(C)(C)C)cc1Cc1cccc(c1O)Cc1cc(C(C)(C)C)cc(c1OC)Cc1cccc(c1O)Cc1cc(C(C)(C)C)cc(c1OC)Cc1cccc(c1O)C2`, the TGI in assay [2], in assay [3], in assay [9], in [4], in [5] and in assay [10] was greater than 100 µM throughout. Also, the TGI in assay [6], in assay [7] and in assay [8] was greater than 100 µM each time.
In the case of `C[N+](C)(C)c1ncnc2c1ncn2C1CCCCO1` (stereo not drawn), the TGI in [1], in assay [2], in assay [3], in assay [9], in assay [4] and in assay [5] was greater than 100 µM in each case. In addition, the concentration for total growth inhibition (TGI) in assay [10], in [6] and in assay [8] was greater than 100 µM each time.
As for `O=C(NCc1ccc(Cl)cc1)c1cc2sccc2nc1C(F)(F)F`, the concentration for total growth inhibition (TGI) in [1] is greater than 100 µM; in [9], 45.8 µM; in [4] it was 56.2 µM; in [10], greater than 100 µM; in assay [6] it was greater than 100 µM; in [8] it was greater than 100 µM.
With `C#CCn1c(=O)c(C#N)c(O)c2cc3ccccc3nc21`, the concentration for total growth inhibition (TGI) in assay [1], in assay [2], in assay [4], in [5], in [6] and in [7] was greater than 100 µM throughout. For the same compound, the TGI in assay [8] was greater than 100 µM.
In the case of `NNc1nncn1N`, the TGI in assay [1] is 33.2 µM; in [2] it was greater than 100 µM; in assay [3], greater than 67.3 µM; in assay [9] it was greater than 100 µM; in assay [4], greater than 100 µM; in [5], greater than 100 µM. For the same compound, the TGI in assay [10], in [6] and in assay [8] was greater than 100 µM throughout.
For the compound `O=C1/C(=C2\Sc3c(ccc(Cl)c3Cl)C2=O)Sc2c1ccc(Cl)c2Cl`, the concentration for total growth inhibition (TGI) in assay [1], in [3], in assay [9], in assay [4], in assay [5] and in assay [10] was greater than 100 µM in each case. The TGI in assay [6], in assay [7] and in assay [8] was greater than 100 µM throughout.
Take `CC(=O)O[C@H]1C(=O)[C@@]2(C)[C@H]([C@H](OC(=O)c3ccccc3)[C@]3(O)C[C@H](OC(=O)[C@H](O)[C@@H](NC(=O)CC(C)(C)C)c4ccccc4)C(C)=C1C3(C)C)C1(OC(C)=O)CO[C@@H]1C[C@@H]2O` (stereo partly drawn): the concentration for total growth inhibition (TGI) in [1] was greater than 10 µM; in assay [3], 0.0833 µM; in assay [9] it was greater than 10 µM; in [5], 0.0154 µM; in assay [10], greater than 10 µM; in assay [6], greater than 10 µM. For the same compound, the concentration for total growth inhibition (TGI) was 0.0418 µM in assay [7] and greater than 10 µM in assay [8].
Turning to `C/C(O)=C/c1nc2ccc([N+](=O)[O-])cc2nc1/C=C(/C)O`, the TGI in assay [1] is 61.9 µM; in [2], greater than 100 µM; in assay [3], greater than 100 µM; in [9] it was greater than 100 µM; in assay [4], greater than 100 µM; in [5] it was greater than 100 µM. Moreover, the TGI in [10] was greater than 100 µM; in [6], greater than 100 µM; in assay [8], 72.7 µM.
Take `Cc1ccc(C(=O)/C(C#N)=C/Nc2c(C)n(C)n(-c3ccccc3)c2=O)cc1`: the TGI in [1], in assay [2], in assay [3], in [9], in assay [4] and in assay [10] was greater than 100 µM each time. The TGI in [6], in assay [7] and in assay [8] was greater than 100 µM throughout.
On to `COc1cc(/C=C2\CCC(C)C3=C2NC(=S)NC3c2cc(OC)c(OC)c(OC)c2)cc(OC)c1OC` (stereo not drawn), for which the TGI in assay [1] is greater than 100 µM; in [2] it was 39.7 µM; in assay [3] it was greater than 100 µM; in assay [9], greater than 100 µM; in assay [4], greater than 100 µM; in assay [5] it was 66.3 µM. Moreover, the concentration for total growth inhibition (TGI) in assay [10], in assay [6] and in assay [8] was greater than 100 µM throughout.
With `CC(=O)c1cc2c(s1)C(=O)c1ccccc1C2=O`, the TGI was greater than 100 µM in [2]; 12 µM in assay [3]; 4.02 µM in [9]; greater than 100 µM in assay [4]; 23.1 µM in assay [5]; greater than 100 µM in assay [10]. Also, the results for the TGI in assay [6], in assay [7] and in assay [8] were 14.6 µM, 18.3 µM and 3.15 µM, respectively.
In the case of `Cc1ccc(S(=O)(=O)c2c(O)c3ccccc3n(C)c2=O)cc1`, the TGI in assay [1], in [2], in assay [3], in assay [4], in assay [5] and in [10] was greater than 100 µM throughout. For the same compound, the concentration for total growth inhibition (TGI) in [6] and in [8] was greater than 100 µM throughout.

Source of the values: PubChem BioAssay (NCI).
